The values that follow come from patent US20250302816A1, “DISRUPTION OF EPITHELIAL BARRIERS FOR MOLECULAR DELIVERY ENHANCEMENT OR EXTRACTION OF EXTRACELLULAR FLUIDS” (The University of Nottingham, priority 2022, published 2025).

One data set concerns Calu-3. In words: Further in vitro Transwell studies: enhancing translocation of 4 kDa FITC-dextran. The data set is classed as cell-based, human. As to the method: Exemplary molecules (a)-(1) investigated in coarse dose-response by FD4 delivery in Transwell culture (Calu-3). Each molecule was screened at 5 nM, 1 μM, 200 μM levels.
Each compound was screened at 200 μM level.
Each molecule was screened at 5 nM, 1 μM, 200 μM levels.

A further data set deals with ARPE-19 cell layers. In words: Transwell drug transport across ARPE-19 cell layers with or without 3OC12-HSL. The format is cell-based, human. Particulars: doxorubicin 250 μg/ml apical, after 5 hours. As to the method: FIG. 1: Macromolecular therapeutics transported across ARPE-19 cell layers in the absence and presence of 3OC12-HSL transported into the basolateral chamber over a period of five hours. Permeability experiments were initiated by applying 0.5 ml of the test solutions (250 μg/ml Aflibercept/Bevacizumab/or Doxorubicin diluted in HBSS/HEPES) to the apical side of the cells (donor compartment of the Transwell) with or without 3OC12-HSL (200 μM). Drug permeability was determined by sampling the basolateral solution at regular time intervals. Data points are expressed as means±SEM, derived from three replicates in triplicate. p values of <0.05 were considered statistically significant. *, ** and *** denote p<0.05, p<0.01 and p<0.001, respectively.
Calu-3 cells obtained from American Type Culture Collection, USA were cultured using Dulbecco's Modified Eagle Medium (DMEM) supplemented with penicillin (100 U/mL), streptomycin (0.1 mg/mL), amphotericin (0.25 μg/mL), non-essential amino acids (NEM, 1%) and Fetal Bovine Serum (FBS, 10% v/v, Sigma-Aldrich, UK). The human-derived RPE cell line ARPE-19 was obtained from American Type Culture Collection. Cells were grown in Dulbecco's Modified Eagle Medium: F12 (1:1; Gibco, Invitrogen, Carlsbad, CA), including 10% inactivated fetal bovine serum, 100 units/mL penicillin, 100 μg/mL streptomycin, and 2 mM L-glutamine (Sigma-Aldrich). Caco-2 cells were grown in complete culture medium (DMEM supplemented with 17% FBS and 1% antibiotic-antimycotic solution). All cells were kept in a water-jacketed incubator (model 3546, Forma Scientific, Inc., Marietta, OH, USA) maintained at 37° C. and an atmosphere of humidified air with 5% CO2. Medium was replaced every other day until cells reached the 80-90% confluence desired for re-plating or culturing mature, polarised barrier models.
When confluent, cells were seeded on Transwell® filters (12 mm diameter, 0.4 μm pore size; Corning Life Sciences, Holland) at 10^5 cells/cm^2. […]
Three polarised epithelial in-vitro tissue models, including lung epithelium (Calu-3), retinal pigment epithelium (ARPE-19) and intestinal epithelial (Caco-2) were used to study the efficiency of 200 μM 3OC12-HSL as a paracellular permeability enhancer for three different drugs: bevacizumab, aflibercept and doxorubicin (applied concentrations 250 μg/mL). The amount of drugs transported was determined via the conversion of fluorescence intensity to amount (μg or ng), using calibration curves constructed via serial standard dilutions. […]
Permeability experiments were initiated by applying 0.5 mL of the test solutions to the apical side of the cells (donor compartment of the Transwell®). […] Drug permeability was determined by sampling the basolateral solution at regular time intervals. […]

Another data set has as its system ex-vivo rat eyes. As to the method:
In order to investigate the efficacy of 3OC12-HSL as drug delivery enhancer in intact tissue, bevacizumab (250 μg/mL: […]) and aflibercept (40 mg/mL: 348 μM) were applied with and without 3OC12-HSL to ex-vivo rat eyes, and the distribution of drugs was visualised within sagittal ocular cryosections by confocal microscopy. A further set of experiments tested efficacy of 3OC12-HSL via ex vivo porcine skin.
Six hooded rats with pigmented eyes, weighing 280-300 g and aged 7-8 weeks were provided by Bio-Support Unit at the Queen's Medical Centre, Nottingham. Experiments were designed to be performed ex-vivo, immediately post-sacrifice, during experiments supporting other studies. Tested therapies (bevacizumab (250 μg/mL), aflibercept (250 μg/mL) with/without 3OC12-HSL (200 μM) were immediately applied post-sacrifice in (50 μL) to the corneal surface of each animal for a period of 1 hour, before being washed off using ice-cold PBS. The eyeballs were enucleated, immersed in OCT, and flash-frozen in isopentane cooled by liquid N2 before being stored at −80° C. for further processing.
OCT-embedded eyes were cut into 15 μm tissue sections using a cryostat (Leica 3050) and mounted on gelatin-coated slides, at cutting temperatures between −15 and −23° C. […]

The subject of data set [1] is human primary lung epithelium. Description: Human primary lung epithelium, air-liquid interface culture: TEER, FD4 and mAb delivery. The format is cell-based.
A further data set has as its system MMP. Description: Fluorogenic MMP activity assay. The data set is classed as cell-based, human. The method, then:
FIG. 5: High-throughput MMP assay (MMP Activity Assay Kit (Fluorometric-Red), Abcam #ab112147) showing the normalised accumulation slope of FRET-based signal (Ex540: Em590 nm) read at 5 minute intervals for one hour in adherent Calu-3 cells cultured in glass-bottomed 96-well plates using a SpectraMax i3x/Biomek FXPP high-throughput platform. Each experiment was conducted in triplicate (error bars). Signal accumulation over time in each well was linearly fitted and the gradient of each fit was scaled against the gradient of the relevant positive control wells, to which active MMP was added directly (mixed isoforms, […]), to obtain the normalised accumulation slope.
To investigate the involvement of MMP in the disruption of tight junctions observed in the presence of 200 μM 3OC12-HSL and C7 PQS, a fluorogenic MMP activity assay was performed, using the Amplite™ Universal Fluorimetric MMP Activity Assay Kit. This kit is designed to check the general activity of a MMP enzyme.
Following treatment with 3OC12-HSL and C7 PQS respectively, the conditioned media were collected every hour from apical chamber and MMP activity was determined by using Amplite™ Universal Fluorimetric MMP Activity Assay Kit Green Fluorescence according to the manufacturer's instructions.
A fluorogenic MMP activity assay was carried out in the same manner on further agents.

The test system of the next data set is Calu-3 cell layers. In words: FD4 permeability and TEER of polarised Calu-3 cell layers. The data set is classed as cell-based, human.
The test system of the next data set is Calu-3 cells. Description: MTS assay of metabolic activity / cell viability. The format is cell-based, human. Particulars: 5 nM to 200 μM, 6 hours. (In general: Formazan colour is commonly taken as a measure of viable cells.)
The subject of another data set is ZO-1. Description: ZO-1 immunostaining and confocal microscopy of Calu-3 cell layers. The format is cell-based, human. Particulars: 200 μM, one hour, vs vehicle 0.15% DMSO. The method, then: To visualise the effect of 3OC12-HSL and C7 PQS on tight junction integrity in Calu-3 cell layers, ZO-1, immunostaining and confocal microscopy was performed on cell layers treated by 200 μM 3OC12-HSL and C7 PQS and control (0.15% DMSO in HBSS) for one hour. Confluent cell monolayers were washed with PBS and fixed in 4% paraformaldehyde in PBS for approximately 10 min at room temperature. Cells were then washed 3 times with PBS and permeabilised by incubating with Triton X-100 (0.1% v/v in PBS) for 10 min. Cells were then washed with PBS, followed by the application of 1% BSA/PBS for approximately 1 hour. Thereafter, BSA/PBS solution was aspirated and replaced with mouse, anti-human ZO-1 (primary) antibody, diluted in 1% BSA/PBS to a final concentration of 100 μg/ml. Cell samples were incubated with the primary antibody for 2 hours. The primary antibody solution was then removed and cells washed with PBS (5 times). FITC-labelled goat, anti-mouse (secondary) antibody, diluted according to manufacturer's instructions in 1% BSA/PBS was then applied to the cells for 1 hour. The secondary antibody solution was then aspirated and cells washed with PBS three times. […]

Description for Calu-3 cells: To assess 3OC12-HSL and C7 PQS molecules cytotoxicity on cell viability of Calu-3 cell layers and to monitor short-term cytotoxicity during experiments, Calu-3 cells were treated with 3OC12-HSL and C7 PQS, at concentrations 5 nM, 1 μM, 50 μM, 100 μM and 200 μM, for 6 hours. At the end of the treatment, cell viability (through measuring metabolic activity) of cultures was determined by chromogenic MTS assay.
The viability of Calu-3 cells was determined by a chromogenic MTS method based on the measuring of mitochondrial respiration, assessed by the reduction of 3-(4,5-dimethylthiazol-2-yl)-5-(3-carboxymethoxyphenyl)-2-(4-sulfophenyl)-2H-tetrazolium to formazan. Calu-3 cells were cultured in a 96-well plate (CellTiter 96® Aqueous, Promega) at a density of 10^4 cells per well and incubated at 37° C., 5% CO2 for 24 hours. After 24 hours, the medium was replaced with 100 μl of test compounds dissolved in HBSS and then cells were incubated for 6 hours. HBSS and Triton X-100 (0.1% v/v in HBSS) were used as the negative and positive controls respectively. Bathing solutions were then aspirated and cells washed with PBS. Then culture medium (100 μl at 37° C.) plus MTS reagent (20 μl) were added into each well and cells were incubated for 2 hours. Absorbance at 492 was measured using a Dynex absorbance microplate reader (Dynex Technologies, USA) and converted into a percentage metabolic rate.

On to `CCCCCC/C=C\CCCC(=O)N[C@H]1CCOC1=O` [5-cis-C12 HSL], for which, in the data set with Calu-3, the “Effective in enhancing translocation” value is “No”. For `COc1cccc2c1C(=O)c1c(O)c3c(c(O)c1C2=O)C[C@@](O)(C(=O)CO)C[C@@H]3O[C@H]1C[C@H](N)[C@H](O)[C@H](C)O1` [Doxorubicin, reference compound], the “amount of drug transported into the basolateral chamber” value in the data set on ARPE-19 cell layers (with 3OC12-HSL (200 μM)) was determined as 62.33 µg; with ARPE-19 cell layers (without 3OC12-HSL) it was 9.85 µg. `Cc1[nH]c2ccccc2c(=O)c1O` [C1 PQS (Me PQS)]: the “Effective in enhancing translocation” value in the data set on Calu-3 is given as “Yes”. Consider `CCCCCCCc1cc(O)c2ccccc2n1` [HHQ], for which the “Effective in enhancing translocation” value in the data set on Calu-3 is on record as “Yes”. Turning to `CCCCCCC/C=C\C(=O)O` [Cis-2-decenoic acid, cis-2-decenoic acid], the “Effective in enhancing translocation” value in the data set with Calu-3 is listed as “Yes”. On the same count and under the same terms, then `CCCCCCCCCc1[nH]c2ccccc2c(=O)c1O` [C9 PQS], with “Yes”. “Aflibercept: recombinant fusion protein of VEGF-binding portions of human VEGF receptors 1 and 2 and Fc of human IgG1”: in the data set with ex-vivo rat eyes, the “fluorescence in eye sections (CLSM)” value is recorded as “No fluorescence was detected”. As to `CCCCCCCCCC1=Nc2ccccc2C(=O)C1` [HNQ], the “Effective in enhancing translocation” value in the data set on Calu-3 is “Yes”. In the case of `CCCCCC/C=C/Cc1[nH]c2ccccc2c(=O)c1C` [3-Me C9: 2. Quinolone], in the data set on Calu-3, the “Effective in enhancing translocation” value is “No”.

Regarding `CCCCCCCc1[nH]c2cc(F)ccc2c(=O)c1O` [7F-C7 PQS], in data set [1], the “TEER (electrical resistance) upon agent exposure” value was “temporarily reduced” and the “mAb (Mepolizumab) delivery upon agent exposure” value was “increased”. With `CC(C)CCCCCCc1[nH]c2ccccc2c(=O)c1O` [7Me-C8-PQS], in the data set on Calu-3, the “Effective in enhancing translocation” value is “Yes”. Turning to `CCCCCCCCCc1[nH]c2ccccc2c(=O)c1CN(C)C` [3-C1NMe2 C9 PQS], in the data set with Calu-3, the “Effective in enhancing translocation” value is reported as “No”. Take `CCCC(=O)NC1CCOC1=O` (stereo not drawn) [C4 HSL (BHL), N-butyl-homoserine-lactone]: the “MMP activation (further MMP screening)” value with MMP (assay carried out in the same manner on further agents) is given as “cause MMP activation”. For `CCCCCNC(=O)c1[nH]c2ccccc2c(=O)c1O` [PQS-C5-Amide], in the data set on Calu-3, the “Effective in enhancing translocation” value is on record as “No”.

As for `CCCCCCCCCCCc1cc(=O)c2ccccc2[nH]1` [UHQ], in the data set with Calu-3, the “Effective in enhancing translocation” value is listed as “Yes”. As to `CCCCCCCc1[nH]c2ccccc2c(=O)c1O` [C7 PQS, 2-n-heptyl-3-hydroxy-4 (1H)-quinolone], the “paracellular passage / flux of FD4 from apical to basolateral chamber” value in the data set on Calu-3 cell layers (200 μM (3OC12-HSL: 200 μM or 1 μM)) is “increased the flux of FD4”. Moreover, the “TEER after 7 hours” value in the data set with Calu-3 cell layers (200 μM, recovery, SEM+/−20) is on record as 510 Ωcm^−2. For the same compound, the “time after which TEER started increasing / cell layer integrity began to recover” value in the data set with Calu-3 cell layers (during exposure) was determined as 5 h. The “MMP activation in apical samples taken at one-hour intervals” value with MMP (200 μM, p<0.01, no fluorescence in control samples) is listed as “significant MMP activation”. Besides, in the data set with MMP (samples taken hourly from apical chamber), the “period over which MMP activation increased before starting to reduce” value is 4 h. Moreover, the “cytotoxic effect on cell viability within epithelial layers” value in the data set on Calu-3 cells was “do not have an adverse cytotoxic effect”. In the data set on Calu-3, the “Effective in enhancing translocation” value was “Yes”. In addition, the “ZO-1 distribution at tight junctions” value with ZO-1 is reported as “considerable dislocation of ZO-1 proteins”. In the case of `CCCCCCCc1cc(O)c2ccccc2[n+]1[O-]` [C7 HNQ N-oxide], the “Effective in enhancing translocation” value with Calu-3 is on record as “Yes”.

With `CCCCC(=O)CC(=O)NC1CCOC1=O` (stereo not drawn) [OC7-HSL], the “Effective in enhancing translocation” value with Calu-3 was “Yes”. With `CCCCCCCCCC(=O)CC(=O)Nc1nccs1` [OdDAT], in data set [1], the “TEER (electrical resistance) upon agent exposure” value is given as “temporarily reduced” and the “mAb (Mepolizumab) delivery upon agent exposure” value was “increased”. For `CCCCCCCCCCCc1[nH]c2ccccc2c(=O)c1O` [C11 PQS], the “Effective in enhancing translocation” value with Calu-3 was “Yes”.
